Legend:
[1] = Microbiocidal properties of per-acids (studies by the inventors)
[2] = Delignification by per-acids (studies by the inventors)

O=COO [performate]
microbiocidal properties [1]: very powerful microbiocidal properties
delignification of plant wall material [2]: very efficient delignification

CC(=O)O[O-].[Na+] [peracetate]
microbiocidal properties [1]: very powerful microbiocidal properties
delignification of plant wall material [2]: very efficient delignification
